Data set [1] is described as follows: Determination of solubility of cellobiose (Karl Fisher moisture of supernatant). It is filed as physicochemical. The conditions noted are these: supernatant of 20% (w/v) solution after crystal formation, 100% minus moisture content. The method, then: There was prepared a 20% (w/v) solution of a commercially available cellobiose (manufactured by Wako Pure Chemical Co., Ltd.), the resulting solution was introduced into a thermostatic chamber maintained at a temperature ranging from 10 to 60° C. to thus form crystals of cellobiose, thereafter the content of water present in the supernatant was determined using a Karl Fisher moisture meter and then the solubility was calculated by subtracting the moisture content from 100%.

The nature of data set [2]: Solubility in water expressed as dissolution time. The data set is classed as physicochemical. The note with it: for Dissolution Time: 10 g in 100 mL deionized water at 25 °C with stirring. The protocol: The solubility (the rate of dissolution) of crystalline cellobiose in water may vary depending on the rates of the stereoisomers (the rates of the α- and β-anomers). For instance, when the cellobiose crystals are dissolved in water, the resulting solution is maintained at a high temperature falling within the range in which the solution is not boiled, preferably 80 to 95° C. for a time ranging from 0.5 to 2.0 hours and then the solution is dried while maintaining the same at that temperature, the ratio of the α-anomer is increased to thus give cellobiose powder improved in its solubility in water.
The cellobiose-containing sugar solution having a high content of cellobiose, prepared in Example 4 was concentrated to a solid content concentration of 20%, the sugar solution was then maintained at a temperature of 20° C., 60° C. or 80° C. for one hour and, immediately thereafter, the solution was dried in a spray dryer to thus give cellobiose powder. These powdery cellobiose products were inspected for the solubility in water and the distribution rate of anomers. In this respect, the distribution rate of anomers was determined using Gas Chromatograph GC14 available from Shimadzu Corporation which was equipped with a column: DB1701 (inner diameter: 0.25 mm; length: 30 m) available from J & W Company. More specifically, each sample (1.0 mg) was dissolved in 0.769 mL of pyridine, 0.077 mL of TMSC and 0.154 mL of HMDS were added to the resulting solution, the mixture was maintained at room temperature for one hour and then it was used in the gas chromatography analysis.

As for `O=C[C@H](O)[C@@H](O)[C@H](O[C@@H]1O[C@H](CO)[C@@H](O)[C@H](O)[C@H]1O)[C@H](O)CO` [Cellobiose, cellobiose], the “Solubility of Cellobiose” value in data set [1] (10 °C) is given as 13.5%; in data set [1] (20 °C), 14.0%; in data set [1] (30 °C) it was 14.7%; in data set [1] (40 °C), 18.4%; in data set [1] (50 °C), 22.9%; in data set [1] (60 °C) it was 26.3%.
`O=C[C@H](O)[C@@H](O)[C@H](O[C@@H]1O[C@H](CO)[C@@H](O)[C@H](O)[C@H]1O)[C@H](O)CO` [Example 1, cellobiose]: the “time required for the dissolution” value in data set [2] (10 g sample in 100 mL deionized water at 25 °C with stirring, crystals) is 12.5 min.
For the compound `O=C[C@H](O)[C@@H](O)[C@H](O[C@@H]1O[C@H](CO)[C@@H](O)[C@H](O)[C@H]1O)[C@H](O)CO` [Example 5, cellobiose], the “Dissolution Time” value in data set [2] (powder spray-dried from sugar solution kept at 20 °C for one hour) was determined as 8.0 min; in data set [2] (powder spray-dried from sugar solution kept at 60 °C for one hour) it was 4.0 min; in data set [2] (powder spray-dried from sugar solution kept at 80 °C for one hour), 2.5 min.

The values above are taken from patent US8580955B2, “Purification method and production method for cellobiose” (Matsutani Chemical Industry Co., Ltd., priority 2005, dated 2013).
